Experiment [1] in a line: Antioxidant activity assessed as ABTS radical scavenging activity. It counts as functional.
Experiment [2] is described as follows: Antioxidant activity assessed as ABTS radical scavenging activity at 8 uM relative to control. It counts as functional.
Experiment [3] is described as follows: Antioxidant activity assessed as oxygen radical scavenging by measuring trolox equivalents. It counts as functional.
Experiment [4] is described as follows: Antioxidant activity assessed as DPPH radical scavenging activity. It counts as functional. (Loss of DPPH colour is used to gauge radical scavenging.)
The test system of experiment [5] is SH-SY5Y. As to the kind of experiment: Neuroprotective activity against OGD/R induced cell injury in human SH-SY5Y cells assessed as increase in cell survival rate at 1 uM (reference value: 63.22 +/- 2.12%). It counts as functional. To be noted: read-out: Survival.
A short description of experiment [6]: Antioxidant activity assessed as DPPH radical scavenging activity at 8 uM relative to control. It counts as functional.
The nature of experiment [7]: Antioxidant activity assessed as DPPH radical scavenging activity measured after 30 mins. It counts as functional.
Experiment [8] has as its system SH-SY5Y. As to the kind of experiment: Neuroprotective activity against OGD/R induced cell injury in human SH-SY5Y cells assessed as reduction in cell shrinkage at 1 uM pretreated with OGD/R for 4 hrs followed by compound addition and measured after 24 hrs by light microscopic analysis. It counts as functional, cell-based.
Experiment [9] concerns Mus musculus. Description: Neuroprotective activity against tMCAO- induced brain injury in ICR mouse model assessed as appearance of regularly arranged neuronal nissl bodies at 10 mg/kg, ip by nissl staining based assay. It counts as functional, organism-based.
For experiment [10], the system named is Mus musculus. Description: Neuroprotective activity against tMCAO- induced brain injury in ICR mouse model assessed as reduction in infarct volume at 10 mg/kg, ip (reference value: 43.1%). It counts as functional. The arrangement: scale not given: the % may be the effect or the level left.
For experiment [11], the system named is Mus musculus. As to the kind of experiment: Neuroprotective activity against tMCAO- induced brain injury in ICR mouse model assessed as restoration of pyramidal cells size at 10 mg/kg, ip by H and E staining based assay. It counts as functional, organism-based.
For experiment [12], the system named is Mus musculus. Description: Neuroprotective activity against tMCAO- induced brain injury in ICR mouse model assessed as appearance of abundant nissl granules at 10 mg/kg, ip by nissl staining based assay. It counts as functional, organism-based.
A short description of experiment [13]: Metal chelating activity assessed as Cu2+ chelation by UV-Vis spectroscopy.
Experiment [14] deals with SH-SY5Y. As to the kind of experiment: Neuroprotective activity against OGD/R induced cell injury in human SH-SY5Y cells assessed as reduction in cell crumpling at 1 uM pretreated with OGD/R for 4 hrs followed by compound addition and measured after 24 hrs by light microscopic analysis. It counts as functional, cell-based.
Experiment [15] is filed under the species Mus musculus. As to the kind of experiment: Neuroprotective activity against tMCAO- induced brain injury in ICR mouse model assessed as appearance of tightly arranged neuronal cells in CA1 region by H and E staining based assay. It counts as functional, organism-based.
Experiment [16] concerns Mus musculus. Description: Neuroprotective activity against tMCAO- induced brain injury in ICR mouse model assessed as restoration of pyramidal cells morphology at 10 mg/kg, ip by H and E staining based assay. It counts as functional, organism-based.
Experiment [17] is described as follows: Antioxidant activity assessed as DPPH radical scavenging activity measured after 30 mins by spectrophotometry assay. It counts as functional.

Structures are written as SMILES. Values after ≈ are worked out from the molar mass of the structure shown. Active and inactive are the calls of the source. No cut-off for these calls is given here.

One may read the IC50 as the point on the concentration scale where inhibition reaches its midpoint.

Regarding `Oc1cc(C(F)(F)F)nn1-c1ncccc1Cl`, the half-inhibitory concentration (IC50) in experiment [1] was 19.5 µM; in [4] (read-out: IC50) it was over 120 µM. Besides, the Activity in experiment [2] stood at 40.4%; in [3], 1.13; in experiment [6], 28.1%. For the same compound, the viability at 1 µM in the experiment on SH-SY5Y [5] is 78.8%.
With `Cc1cc(O)n(-c2ncccc2C(F)(F)F)n1`, the values for the Activity in experiment [2], in experiment [3] and in experiment [6] were 5.92%, 0.98 and 2.85%, respectively. Further, in the experiment with SH-SY5Y [5], the viability at 1 µM worked out at 77.4%.
For `Cc1cc(O)n(-c2ccc(Cl)cn2)n1`, the IC50 was 14.8 µM in [1] and 18.8 µM in [4] (read-out: IC50). Moreover, the Activity in [2] turned out to be 52%; in [3] it was 1.27; in experiment [6], 53%. Also, the viability at 1 µM in the experiment on SH-SY5Y [5] was 73.4%.
As for `O=C1S/C(=C\c2cn(-c3ccccc3)nc2-c2ccc(O)cc2)C(=O)N1Cc1ccccc1`, the half-maximal inhibitory concentration (IC50) in [7] was found to be 110.8 µg/mL (≈ 244 µM).
As for `Oc1cc(C(F)(F)F)nn1-c1ncc(Cl)cc1Cl`, the 50% inhibitory concentration (IC50) in experiment [1] was 20.4 µM; in experiment [4] (read-out: IC50), over 120 µM. Besides, the figures for the Activity in experiment [2], in experiment [3] and in [6] were 46%, 1.3 and 29.4%, respectively. In addition, the viability at 1 µM in the experiment on SH-SY5Y [5] was determined as 76.6%.
In the case of `Oc1cc(C(F)(F)F)nn1-c1ncc(F)cn1`, the IC50 in [1] came to 16.3 µM; in [4] (read-out: IC50), 45.5 µM. Besides, the Activity in experiment [2] came out at 65.4%; in experiment [3], 1.07; in experiment [6], 30.9%. Moreover, the viability at 1 µM with SH-SY5Y [5] was found to be 80.5%.
Consider `Oc1cc(C(F)(F)F)nn1-c1ncccn1`, for which the IC50 in experiment [1] worked out at 13.9 µM; in [4] (read-out: IC50), 45.3 µM. Besides, the Activity in experiment [2] is 63.2%; in [3] it was 1.19; in experiment [6], 36.4%. Also, in the experiment on SH-SY5Y [5], the viability at 1 µM worked out at 72.7%.
For `Oc1cc(C(F)(F)F)nn1-c1ccc(C(F)(F)F)cn1`, the IC50 was 14.8 µM in [1] and 35.8 µM in experiment [4] (read-out: IC50). Also, the Activity in [2] was 68.1%; in experiment [3], 1.1; in [6] it was 28.4%. Besides, the viability at 1 µM in the experiment with SH-SY5Y [5] was 84.5%.
Take `Cc1cc(O)n(-c2ncccc2C)n1`: the IC50 in [1] is 13.7 µM; in experiment [4] (read-out: IC50), 16.1 µM. In addition, the result (in the experiment on SH-SY5Y [8]; in the experiment with Mus musculus [9]; in the experiment on Mus musculus [11]; in the experiment on Mus musculus [12]; in experiment [13]; with SH-SY5Y [14]) was Active. Moreover, the outcome in the experiment filed under Mus musculus [15] and in the experiment on Mus musculus [16] was Active. For the same compound, the Activity with Mus musculus [10] is 24.9%; in experiment [2] it was 54.7%; in [3] it was 1.88; in experiment [6], 49.9%. For the same compound, the viability at 1 µM in the experiment on SH-SY5Y [5] was determined as 87%.
Turning to `CC1=NN(c2ccccc2)C(=O)C1` [EDARAVONE], the IC50 is 15.8 µM in experiment [1] and 42.5 µM in experiment [4] (read-out: IC50). Further, the Activity was 52.3% in experiment [2], 1.46 in experiment [3] and 21.4% in experiment [6]. In addition, the viability at 1 µM with SH-SY5Y [5] was determined as 72.2%.
As for `COc1cc(/C=C/C(=O)CC(=O)/C=C/c2ccc(O)c(OC)c2)ccc1O` [CURCUMIN], the concentration for half-maximal inhibition (IC50) in experiment [4] is 28 µg/mL.
For the compound `O=C(O)C1CS[C@@H](c2cccc(F)c2F)N1` (stereo not given in full), the concentration for half-maximal inhibition (IC50) in experiment [4] (read-out: IC50) amounted to 830 µM.
For `Oc1cc(C(F)(F)F)nn1-c1ncccc1C(F)(F)F`, the IC50 in [1] is 35.5 µM; in experiment [4] (read-out: IC50), over 120 µM. Further, the values for the Activity in [2], in [3] and in experiment [6] were 36.1%, 1.22 and 34.7%, respectively. Besides, the viability at 1 µM in the experiment on SH-SY5Y [5] stood at 70.8%.
`Cc1cc(O)n(-c2ccc(CO)cn2)n1`: the IC50 was found to be 20.5 µM in experiment [1] and 32 µM in experiment [4] (read-out: IC50). Moreover, the Activity in experiment [2] stood at 46.4%; in [3] it was 0.8; in [6], 34.7%. Besides, in the experiment on SH-SY5Y [5], the viability at 1 µM came out at 81.7%.
Turning to `Cc1c(C)c2c(c(C)c1O)CCC(C)(C(=O)O)O2` (stereo not given), the Activity in experiment [3] worked out at 1.
As for `O=C(c1cc(O)c(O)c(O)c1)c1cc(O)c(Br)cc1O`, the concentration for half-maximal inhibition (IC50) in [4] was found to be 14.4 µg/mL.
Consider `Oc1cc(C(F)(F)F)nn1-c1ccc(F)cn1`, for which the half-inhibitory concentration (IC50) worked out at 16.6 µM in [1] and 43.1 µM in experiment [4] (read-out: IC50). The figures for the Activity in experiment [2], in experiment [3] and in experiment [6] were 58.3%, 1.19 and 35.7%, respectively. Moreover, in the experiment with SH-SY5Y [5], the viability at 1 µM was 71.8%.
For `Cc1cc(O)n(-c2ccc(F)cn2)n1`, the figures for the IC50 in experiment [1] and in [4] (read-out: IC50) were 13.8 µM and 19.8 µM, respectively. Also, the Activity in experiment [2] amounted to 51.6%; in [3], 1.06; in [6] it was 21.4%. The viability at 1 µM with SH-SY5Y [5] was 89.5%.
Regarding `Cc1cc(O)n(-c2cccc(CO)n2)n1`, the 50% inhibitory concentration (IC50) in [1] is 18.9 µM; in experiment [4] (read-out: IC50), 59.5 µM. Also, the values for the Activity in experiment [2], in experiment [3] and in experiment [6] were 49.6%, 1.06 and 28.5%, respectively. The viability at 1 µM in the experiment with SH-SY5Y [5] amounted to 75.4%.
On to `CC1=NN(c2ncc(Cl)cc2Cl)C(=O)C1`, for which the figures for the half-inhibitory concentration (IC50) in experiment [1] and in experiment [4] (read-out: IC50) were 19.4 µM and over 120 µM, respectively. The results for the Activity in [2], in experiment [3] and in experiment [6] were 31.9%, 1.42 and 6.73%, respectively. For the same compound, the viability at 1 µM in the experiment on SH-SY5Y [5] worked out at 82.5%.
Turning to `Cc1cc(O)n(-c2ncccc2Cl)n1`, the Activity in [2] amounted to 4.56%; in [3] it was 0.9; in [6], 2.36%. Moreover, the viability at 1 µM in the experiment with SH-SY5Y [5] is 71.5%.
With `Cc1cc(C)nc(-n2nc(C)cc2O)n1`, the IC50 in [1] was determined as 14.6 µM; in experiment [4] (read-out: IC50) it was 18.5 µM. Also, the Activity in experiment [2] came to 63.9%; in experiment [3], 1.56; in [6] it was 51.6%. In the experiment with SH-SY5Y [5], the viability at 1 µM turned out to be 74.7%.
As to `Cc1nc(C)c(-n2nc(C(F)(F)F)cc2O)nc1C`, the IC50 in experiment [1] is 19.7 µM; in experiment [4] (read-out: IC50), over 120 µM. Also, the Activity was determined as 55.6% in experiment [2], 1.34 in experiment [3] and 30.6% in experiment [6]. Besides, in the experiment on SH-SY5Y [5], the viability at 1 µM was 75.4%.
Take `O=C(O)/C=C/c1ccc(O)c(O)c1` [CAFFEIC ACID]: the IC50 in experiment [4] is 0.8 µg/mL.
`C[C@H]1[C@H](C)CC[C@]2(C(=O)O)CC[C@]3(C)C(=CC[C@@H]4[C@@]5(C)CC[C@H](O)C(C)(C)[C@@H]5CC[C@]43C)[C@H]12` [URSOLIC ACID]: the half-inhibitory concentration (IC50) in [4] worked out at 59 µg/mL.
In the case of `OCc1ccc(-n2nc(C(F)(F)F)cc2O)nc1`, the IC50 in experiment [1] is 28 µM; in experiment [4] (read-out: IC50), 63.9 µM. The Activity entry was “Not active; Showed Weak Activity” with Mus musculus [10], 57.1% in [2], 0.91 in experiment [3] and 40.4% in experiment [6]. The viability at 1 µM in the experiment with SH-SY5Y [5] is 78.1%.
Regarding `Cc1cc(O)n(-c2ccccn2)n1`, the IC50 in experiment [1] is 12.3 µM; in [4] (read-out: IC50), 15.4 µM. Moreover, the Activity in [2] stood at 69.1%; in experiment [3], 1.27; in experiment [6], 35.1%. The viability at 1 µM in the experiment on SH-SY5Y [5] was 81.5%.
In the case of `Cc1cc(O)n(-c2ccc(C(F)(F)F)cn2)n1`, the IC50 in experiment [1] amounted to 16.1 µM; in experiment [4] (read-out: IC50), 15.2 µM. Further, the Activity in experiment [2] was 55%; in [3], 1.14; in experiment [6], 30.3%. Moreover, the viability at 1 µM in the experiment on SH-SY5Y [5] was 79.1%.
Regarding `Oc1ccc(/C=C/c2cc(O)cc(O)c2)cc1` [RESVERATROL], the IC50 in experiment [17] came out at 65 µM.

The record behind these values is ChEMBL document CHEMBL6083244, “Identification of 3-methyl-1-(3-methylpyridin-2-yl)-1H-pyrazol-5-ol as promising neuroprotective agent” (Bioorg Med Chem Lett, 2024).
